pIC50: −log10 of the molar value. Activity calls are given as the source filed them. The calls are words filed in the database; no cut-off is given here.
Legend:
[1] = Cytotoxicity against human MCF7/ADR cells after 72 hrs by MTT assay; assay type: functional, cell-based; settings: NCI/ADR-RES
MCF7 [2] = test: Ratio of IC50 for human MCF7/ADR cells to IC50 for human MCF7 cells; assay type: functional
MCF7 [3] = test: Reversal of P-gp-mediated multidrug resistance in human MCF7 cells assessed as assessed as increase in intracellular adriamycin accumulation at 5 uM incubated 2 hrs before adriamycin challenge by spectrophotometry; assay type: cell-based
NCI/ADR-RES [4] = test: Reversal of P-gp-mediated multidrug resistance in human MCF7/ADR cells assessed as modulation factor, ratio of adriamycin IC50 without drug to adriamycin IC50 with drug at 25 uM after 72 hrs by MTT assay; assay type: cell-based
NCI/ADR-RES [5] = test: Reversal of P-gp-mediated multidrug resistance in human MCF7/ADR cells assessed as modulation factor, ratio of adriamycin IC50 without drug to adriamycin IC50 with drug at 10 uM after 72 hrs by MTT assay; assay type: cell-based
NCI/ADR-RES [6] = test: Reversal of P-gp-mediated multidrug resistance in human MCF7/ADR cells assessed as assessed as increase in intracellular adriamycin accumulation at 5 uM incubated 2 hrs before adriamycin challenge by spectrophotometry; assay type: cell-based
NCI/ADR-RES [7] = test: Reversal of P-gp-mediated multidrug resistance in human MCF7/ADR cells assessed as enhancement in cytotoxicity of adriamycin; assay type: cell-based
NCI/ADR-RES [8] = test: Reversal of P-gp-mediated multidrug resistance in human MCF7/ADR cells assessed as modulation factor, ratio of adriamycin IC50 without drug to adriamycin IC50 with drug at 1 uM after 72 hrs by MTT assay; assay type: cell-based
NCI/ADR-RES [9] = test: Inhibition of MDR1 gene expression in human MCF7/ADR cells after 48 hrs by RT-PCR analysis; assay type: functional, cell-based
P-gp (ABCB1) [10] = target: T1, P-gp (ABCB1) (Homo sapiens, UniProt P08183); test: Inhibition of P-gp in human Caco-2 cells assessed as increase in influx permeability from apical to basolateral side at 50 uM after 120 mins; assay type: cell-based
T1 sequence (P08183 whole entry): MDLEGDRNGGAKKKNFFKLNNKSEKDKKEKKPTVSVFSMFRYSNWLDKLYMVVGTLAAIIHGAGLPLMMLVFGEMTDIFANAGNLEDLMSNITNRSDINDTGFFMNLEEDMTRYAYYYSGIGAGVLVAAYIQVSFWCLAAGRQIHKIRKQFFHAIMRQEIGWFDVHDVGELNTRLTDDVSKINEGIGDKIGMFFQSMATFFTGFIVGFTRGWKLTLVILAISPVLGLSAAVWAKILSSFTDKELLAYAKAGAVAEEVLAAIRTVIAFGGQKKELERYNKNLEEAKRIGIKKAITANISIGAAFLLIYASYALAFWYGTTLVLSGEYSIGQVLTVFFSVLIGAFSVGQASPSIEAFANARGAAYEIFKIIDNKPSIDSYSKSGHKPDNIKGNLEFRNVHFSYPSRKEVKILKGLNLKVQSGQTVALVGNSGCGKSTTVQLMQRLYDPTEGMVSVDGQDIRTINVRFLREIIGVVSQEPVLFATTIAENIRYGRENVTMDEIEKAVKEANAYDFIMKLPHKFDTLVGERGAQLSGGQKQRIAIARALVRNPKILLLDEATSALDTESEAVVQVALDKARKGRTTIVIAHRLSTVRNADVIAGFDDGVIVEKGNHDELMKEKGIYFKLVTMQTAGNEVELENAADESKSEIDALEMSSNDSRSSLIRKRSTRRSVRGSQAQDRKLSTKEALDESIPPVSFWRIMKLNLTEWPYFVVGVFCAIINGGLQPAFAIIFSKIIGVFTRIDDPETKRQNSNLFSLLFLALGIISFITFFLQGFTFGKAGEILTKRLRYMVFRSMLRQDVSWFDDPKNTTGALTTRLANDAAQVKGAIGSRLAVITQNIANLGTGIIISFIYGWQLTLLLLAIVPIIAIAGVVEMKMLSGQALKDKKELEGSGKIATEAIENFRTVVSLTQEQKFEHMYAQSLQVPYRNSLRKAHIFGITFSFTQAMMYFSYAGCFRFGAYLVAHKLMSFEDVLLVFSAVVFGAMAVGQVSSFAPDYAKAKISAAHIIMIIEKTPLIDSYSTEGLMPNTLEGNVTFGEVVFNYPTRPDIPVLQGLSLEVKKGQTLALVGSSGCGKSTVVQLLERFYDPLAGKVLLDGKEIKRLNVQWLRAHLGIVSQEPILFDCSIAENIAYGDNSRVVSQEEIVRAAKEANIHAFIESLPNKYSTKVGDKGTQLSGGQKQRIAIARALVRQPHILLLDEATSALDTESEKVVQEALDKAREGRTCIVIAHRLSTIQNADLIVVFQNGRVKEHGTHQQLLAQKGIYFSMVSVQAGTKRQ

P-gp (ABCB1) [11] = target: T1, P-gp (ABCB1); test: Inhibition of P-gp in human Caco-2 cells assessed as decrease in efflux permeability from basolateral to apical side at 50 uM after 120 mins; assay type: cell-based

Row | SMILES | pIC50 [1] | Ratio IC50 (MCF7 [2]) | Activity (MCF7 [3]) | Ratio IC50 (NCI/ADR-RES [4]) | Ratio IC50 (NCI/ADR-RES [5]) | Activity (NCI/ADR-RES [6]) | Activity (NCI/ADR-RES [7]) | Ratio IC50 (NCI/ADR-RES [8]) | Activity (NCI/ADR-RES [9]) | inhibition at 2 h, 50 µM (P-gp (ABCB1) [10]) | fold change (FC) (NCI/ADR-RES [7]) | inhibition at 2 h, 50 µM (P-gp (ABCB1) [11])
1 | COc1cccc2c1C(=O)c1c(O)c3c(c(O)c1C2=O)C[C@@](O)(C(=O)CO)C[C@@H]3O[C@H]1C[C@H](N)[C@H](O)[C@H](C)O1 [DOXORUBICIN] | 4.60 | 47.7 |  |  |  |  |  |  |  |  |  | 
2 | COc1ccc(-c2oc3c(CC=C(C)C)c(O[C@@H]4O[C@H](CO)[C@@H](O)[C@H](O)[C@H]4O)cc(O)c3c(=O)c2O[C@@H]2O[C@@H](C)[C@H](O)[C@@H](O)[C@H]2O)cc1 [ICARIIN] | < 4.00 |  | inactive | 2.03 | 1.59 | Active | Dose-dependent effect | 1.41 |  |  |  | 
3 | COc1ccc(-c2oc3c(CCC(C)(C)OC)c(O)cc(O)c3c(=O)c2O)cc1 | 4.68 |  | inactive |  | 2.41 | Active | Dose-dependent effect | 1.26 |  |  |  | 
4 | COc1ccc(-c2oc3c4c(cc(O)c3c(=O)c2OS(C)(=O)=O)OC(C)(C)CC4)cc1 | 4.26 |  | inactive | 2.71 | 2.34 | Active |  | 1.89 | Active |  |  | 
5 | COc1ccc(-c2oc3c(CC=C(C)C)c(O)cc(O)c3c(=O)c2O[C@@H]2O[C@@H](C)[C@H](O)[C@@H](O)[C@H]2O)cc1 | < 4.00 |  | inactive | 1.61 | 1.39 | Active |  | 1.28 |  |  |  | 
6 | COc1ccc(-c2oc3c(CC=C(C)C)c(O)cc(O)c3c(=O)c2O)cc1 [ICARITIN] | 4.28 |  | inactive | 12.9 | 4.96 | Active |  | 2.48 | Active | 41.9% | 10 | 41.9%
7 | COc1ccc(-c2oc3c4c(cc(O)c3c(=O)c2OS(N)(=O)=O)OC(C)(C)CC4)cc1 | 4.04 |  | inactive | 3.65 | 1.69 | Active |  | 1.42 | Active |  |  | 
8 | COc1ccc(-c2oc3c(CC=C(C)C)c(OS(C)(=O)=O)cc(O)c3c(=O)c2OS(C)(=O)=O)cc1 | 4.09 |  | inactive | 1.46 | 1.36 | Active |  | 1.11 |  |  |  | 
9 | COc1ccc(-c2oc3c4c(cc(O)c3c(=O)c2O)OC(C)(C)CC4)cc1 | < 4.00 |  | inactive | 10.1 | 4.35 | Active |  | 2.33 | Active | 39.6% | 10 | 39.6%
10 | COc1ccc(-c2oc3c4c(cc(O)c3c(=O)c2O)OC(C)(C)CC4)cc1S(=O)(=O)O | < 4.00 |  | inactive | 2.56 | 2.15 | Active |  | 1.33 | Active |  |  | 
11 | COc1ccc(-c2oc3c(CC=C(C)C)c(O[C@@H]4O[C@H](CO)[C@@H](O)[C@H](O)[C@H]4O)cc(O)c3c(=O)c2O)cc1 | 4.22 |  | inactive | 1.62 | 1.49 | Active |  | 1.41 |  |  |  | 

— ChEMBL document CHEMBL1152373, “Synthesis and antimultidrug resistance evaluation of icariin and its derivatives” (Bioorg Med Chem Lett, 2009)
